Measured values from patent publication US20260365670A1, “EGFR INHIBITORS AND USES THEREOF” (DIZAL (JIANGSU) PHARMACEUTICAL CO., LTD., priority 2022, published 2026).
Like-named read-outs stand apart in the source and are kept apart here.

Legend:
EGFR wild type = target: T1, EGFR wild type (Homo sapiens, UniProt P00533); test: Inhibition of EGFR wild type biochemical enzymatic activity (HTRF); details: 1 mM ATP
T1 construct: purchased Carna Bio
Method in brief: (§1)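 Each enzyme was first added to plates holding compound. The reaction was then started with ATP (1 mM) and peptide substrate (1 μM). It was stopped after 1 h at room temperature with EDTA detection reagents and read at 615/665 nm to derive IC50s.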

EGFR L858R = target: T2, EGFR L858R (Homo sapiens, UniProt P00533, L858R); test: Inhibition of EGFR L858R biochemical enzymatic activity (HTRF); details: 1 mM ATP
T2 construct: purchased Carna Bio
Method in brief: as §1

EGFR L858R/T790M = target: T3, EGFR L858R/T790M (Homo sapiens, UniProt P00533, L858R/T790M); test: Inhibition of EGFR L858R/T790M biochemical enzymatic activity (HTRF); details: 1 mM ATP
T3 construct: purchased Carna Bio
T3 sequence (P00533 25-1210 T790M/L858R): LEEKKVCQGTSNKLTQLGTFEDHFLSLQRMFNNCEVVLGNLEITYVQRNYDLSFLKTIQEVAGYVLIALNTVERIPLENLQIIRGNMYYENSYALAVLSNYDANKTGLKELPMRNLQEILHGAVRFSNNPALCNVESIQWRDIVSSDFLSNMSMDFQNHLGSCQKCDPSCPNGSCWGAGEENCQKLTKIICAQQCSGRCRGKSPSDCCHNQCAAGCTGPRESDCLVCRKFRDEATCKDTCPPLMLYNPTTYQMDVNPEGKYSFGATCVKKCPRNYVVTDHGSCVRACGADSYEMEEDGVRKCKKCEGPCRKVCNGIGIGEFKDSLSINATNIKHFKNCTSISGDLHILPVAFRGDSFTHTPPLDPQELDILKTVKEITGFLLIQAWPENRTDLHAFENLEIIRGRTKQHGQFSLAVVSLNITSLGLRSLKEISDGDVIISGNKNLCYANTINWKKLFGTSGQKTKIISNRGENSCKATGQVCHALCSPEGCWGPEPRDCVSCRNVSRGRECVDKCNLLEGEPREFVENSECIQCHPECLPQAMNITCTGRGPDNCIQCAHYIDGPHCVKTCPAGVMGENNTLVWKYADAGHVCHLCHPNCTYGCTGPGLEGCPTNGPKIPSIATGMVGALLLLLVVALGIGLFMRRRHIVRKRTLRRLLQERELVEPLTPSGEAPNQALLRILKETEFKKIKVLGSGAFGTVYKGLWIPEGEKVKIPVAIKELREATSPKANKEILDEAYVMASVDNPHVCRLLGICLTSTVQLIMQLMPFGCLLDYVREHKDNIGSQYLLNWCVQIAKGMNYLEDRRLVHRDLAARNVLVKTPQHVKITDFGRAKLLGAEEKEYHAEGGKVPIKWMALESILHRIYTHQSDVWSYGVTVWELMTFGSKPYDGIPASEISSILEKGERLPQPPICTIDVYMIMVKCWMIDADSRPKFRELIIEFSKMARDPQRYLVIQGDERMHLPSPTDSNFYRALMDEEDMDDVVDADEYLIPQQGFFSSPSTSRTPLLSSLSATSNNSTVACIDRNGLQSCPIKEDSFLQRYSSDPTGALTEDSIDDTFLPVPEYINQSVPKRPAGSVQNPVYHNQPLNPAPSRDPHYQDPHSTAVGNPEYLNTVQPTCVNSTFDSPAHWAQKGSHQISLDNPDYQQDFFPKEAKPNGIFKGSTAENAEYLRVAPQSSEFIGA
Method in brief: as §1

EGFR Exon19Del = target: T4, EGFR Exon19Del (Homo sapiens, UniProt P00533, DEL746-750); test: Inhibition of EGFR Exon19Del biochemical enzymatic activity (HTRF); details: read-out: IC50 @Del19
T4 construct: purchased Carna Bio
Method in brief: as §1

EGFR Exon19Del/T790M = target: T5, EGFR Exon19Del/T790M (Homo sapiens, UniProt P00533, DEL746-750/T790M); test: Inhibition of EGFR Exon19Del/T790M biochemical enzymatic activity (HTRF); details: 1 mM ATP
T5 construct: purchased Carna Bio
Method in brief: as §1

EGFR[T790M/C797S/L858R] = target: T6, EGFR[T790M/C797S/L858R] (Homo sapiens, UniProt P00533, C797S/L858R/T790M); test: Inhibition of EGFR[T790M/C797S/L858R] biochemical enzymatic activity (HTRF); details: 1 mM ATP
T6 construct: purchased Carna Bio
Method in brief: as §1

[1] = target: T7, EGFR[T790M/C797S/d746-750] (Homo sapiens, UniProt P00533, C797S/DEL746-750/T790M); test: Inhibition of EGFR[T790M/C797S/d746-750] biochemical enzymatic activity (HTRF)
T7 construct: purchased Carna Bio
T7 sequence (P00533 with tags, fused parts or gaps DEL746-750/T790M/C797S limits assumed): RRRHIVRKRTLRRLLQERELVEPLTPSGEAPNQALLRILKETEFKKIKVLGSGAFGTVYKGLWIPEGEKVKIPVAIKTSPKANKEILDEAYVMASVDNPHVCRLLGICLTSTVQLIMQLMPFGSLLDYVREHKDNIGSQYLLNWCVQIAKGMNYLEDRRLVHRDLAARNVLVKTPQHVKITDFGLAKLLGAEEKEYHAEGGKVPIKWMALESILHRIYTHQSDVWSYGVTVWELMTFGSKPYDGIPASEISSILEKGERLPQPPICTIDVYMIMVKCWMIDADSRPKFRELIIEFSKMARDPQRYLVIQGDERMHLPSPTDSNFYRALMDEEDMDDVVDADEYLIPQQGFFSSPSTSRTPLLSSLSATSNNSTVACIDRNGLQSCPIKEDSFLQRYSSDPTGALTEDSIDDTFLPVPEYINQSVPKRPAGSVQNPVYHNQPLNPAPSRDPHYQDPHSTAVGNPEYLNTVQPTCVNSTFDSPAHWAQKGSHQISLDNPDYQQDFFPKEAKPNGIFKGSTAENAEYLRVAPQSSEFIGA
Method in brief: as §1

EGFR (d746-750 C797S) = target: T8, EGFR (d746-750 C797S) (Homo sapiens, UniProt P00533, C797S/DEL746-750); test: Inhibition of EGFR (d746-750 C797S) biochemical enzymatic activity (HTRF); details: 1 mM ATP
T8 construct: purchased signalchem
T8 sequence (P00533 with tags, fused parts or gaps DEL746-750/C797S limits assumed): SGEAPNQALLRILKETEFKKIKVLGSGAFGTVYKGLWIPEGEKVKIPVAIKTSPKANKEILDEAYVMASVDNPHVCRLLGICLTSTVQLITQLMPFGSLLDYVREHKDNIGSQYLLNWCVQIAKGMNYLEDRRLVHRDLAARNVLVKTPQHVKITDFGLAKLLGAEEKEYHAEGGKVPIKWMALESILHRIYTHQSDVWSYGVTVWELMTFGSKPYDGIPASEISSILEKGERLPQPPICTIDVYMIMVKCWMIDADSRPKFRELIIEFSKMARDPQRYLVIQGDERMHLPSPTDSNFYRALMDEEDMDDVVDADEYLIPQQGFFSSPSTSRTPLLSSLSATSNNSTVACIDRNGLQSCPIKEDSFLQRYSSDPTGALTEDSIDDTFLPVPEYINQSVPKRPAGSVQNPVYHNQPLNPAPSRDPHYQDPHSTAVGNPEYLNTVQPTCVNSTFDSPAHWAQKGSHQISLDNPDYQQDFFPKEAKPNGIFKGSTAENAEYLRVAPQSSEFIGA
Method in brief: as §1

EGFR (C797S L858R) = target: T9, EGFR (C797S L858R) (Homo sapiens, UniProt P00533, C797S/L858R); test: Inhibition of EGFR (C797S L858R) biochemical enzymatic activity (HTRF); details: 1 mM ATP
T9 construct: purchased signalchem
T9 sequence (P00533 25-1210 C797S/L858R): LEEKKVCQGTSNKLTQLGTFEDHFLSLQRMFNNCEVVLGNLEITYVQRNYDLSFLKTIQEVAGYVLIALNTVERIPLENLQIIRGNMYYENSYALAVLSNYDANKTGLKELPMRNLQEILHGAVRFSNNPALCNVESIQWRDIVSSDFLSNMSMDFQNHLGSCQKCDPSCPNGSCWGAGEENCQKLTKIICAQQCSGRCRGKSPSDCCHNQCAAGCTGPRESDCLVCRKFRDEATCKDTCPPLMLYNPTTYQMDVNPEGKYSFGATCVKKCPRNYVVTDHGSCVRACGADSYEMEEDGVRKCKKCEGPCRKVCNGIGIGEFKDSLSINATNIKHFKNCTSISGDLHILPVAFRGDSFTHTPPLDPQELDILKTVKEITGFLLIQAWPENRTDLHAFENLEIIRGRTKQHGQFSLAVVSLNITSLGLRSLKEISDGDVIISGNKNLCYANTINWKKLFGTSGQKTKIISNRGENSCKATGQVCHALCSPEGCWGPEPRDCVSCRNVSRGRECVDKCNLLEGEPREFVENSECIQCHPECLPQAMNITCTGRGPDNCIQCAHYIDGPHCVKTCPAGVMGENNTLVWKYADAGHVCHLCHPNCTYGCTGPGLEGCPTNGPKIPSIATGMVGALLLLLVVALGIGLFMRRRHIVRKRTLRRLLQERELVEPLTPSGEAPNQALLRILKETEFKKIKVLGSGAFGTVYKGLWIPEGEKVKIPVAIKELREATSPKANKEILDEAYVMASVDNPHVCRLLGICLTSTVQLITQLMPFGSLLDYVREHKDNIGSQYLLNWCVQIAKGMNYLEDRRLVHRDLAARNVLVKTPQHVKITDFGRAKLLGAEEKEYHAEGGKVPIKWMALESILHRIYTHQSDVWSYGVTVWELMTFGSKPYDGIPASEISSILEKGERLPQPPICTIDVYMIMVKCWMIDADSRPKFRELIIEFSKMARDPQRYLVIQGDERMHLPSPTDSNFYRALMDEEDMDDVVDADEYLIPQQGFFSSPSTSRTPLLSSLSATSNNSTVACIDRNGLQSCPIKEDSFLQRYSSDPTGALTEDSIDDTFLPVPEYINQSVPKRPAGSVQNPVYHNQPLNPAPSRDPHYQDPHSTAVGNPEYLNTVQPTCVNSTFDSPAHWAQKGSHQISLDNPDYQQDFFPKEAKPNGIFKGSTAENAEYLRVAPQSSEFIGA
Method in brief: as §1

[2] = system: Ba/F3 cells expressing EGFR mutations; test: Cell proliferation assay, Ba/F3 cells expressing EGFR mutations (CellTiter-Glo, 72 hours); type: cell-based
Method in brief: (§2)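 Ba/F3 cells carrying EGFR mutants (5000/well) or PC-9 cells (500/well) in RPMI1640 were dosed with compound series after overnight attachment and grown 72 h. Viability read by CellTiter-Glo, with day-0 counts subtracted; GI50 from curve fits of % proliferation versus DMSO control.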

PC-9 = test: Cell proliferation assay, PC-9 cells (CellTiter-Glo, 72 hours); type: cell-based; details: PC9 cells, read-out: GI50 PC9
Method in brief: as §2

A-431 = test: Cell proliferation assay, A-431 cells (GI50, Table 6); type: cell-based
[3] = EGFR wild type, 1 h at room temperature, read-out: IC50 @WT
[4] = 1 h at room temperature, read-out: IC50 @L858R
[5] = EGFR L858R/T790M, 1 h at room temperature, read-out: IC50 @L858R-T790M
[6] = EGFR Exon19Del, 1 mM ATP, 1 h at room temperature
[7] = EGFR Exon19Del/T790M, 1 h at room temperature, read-out: IC50 @Del19-T790M
[8] = EGFR[T790M/C797S/L858R], 1 h at room temperature, read-out: IC50 @T790M- C797S - L858R
[9] = EGFR[T790M/C797S/d746-750], 1 mM ATP, 1 h at room temperature, read-out: IC50 @T790M - C797S - Del19
[10] = EGFR (d746-750 C797S), 1 h at room temperature, read-out: IC50 @Del19-C797S
[11] = EGFR (C797S L858R), 1 h at room temperature, read-out: IC50 @L858-C797S
[12] = BaF3 cells, EGFR DEL19 - C797S, read-out: GI50 DEL19 - C797S/BaF3
[13] = BaF3 cells, EGFR DEL19 - T790-C797S, read-out: GI50 DEL19 - T790-C797S/BaF3
[14] = BaF3 cells, EGFR L858R - C797S, read-out: GI50 L858R - C797S/BaF3
[15] = BaF3 cells, EGFR L858R - T790-C797S, read-out: GI50 L858R - T790-C797S/BaF3
[16] = BaF3 cells, EGFR L858R - T790M, read-out: GI50 L858R - T790M/BaF3
[17] = BaF3 cells, EGFR L858R, read-out: GI50 L858R/BaF3
[18] = EGFR DEL19 - T790M, read-out: GI50 DEL19 - T790M
[19] = Homo sapiens, A-431, A-431 cells

T1 sequence (P00533 25-1210): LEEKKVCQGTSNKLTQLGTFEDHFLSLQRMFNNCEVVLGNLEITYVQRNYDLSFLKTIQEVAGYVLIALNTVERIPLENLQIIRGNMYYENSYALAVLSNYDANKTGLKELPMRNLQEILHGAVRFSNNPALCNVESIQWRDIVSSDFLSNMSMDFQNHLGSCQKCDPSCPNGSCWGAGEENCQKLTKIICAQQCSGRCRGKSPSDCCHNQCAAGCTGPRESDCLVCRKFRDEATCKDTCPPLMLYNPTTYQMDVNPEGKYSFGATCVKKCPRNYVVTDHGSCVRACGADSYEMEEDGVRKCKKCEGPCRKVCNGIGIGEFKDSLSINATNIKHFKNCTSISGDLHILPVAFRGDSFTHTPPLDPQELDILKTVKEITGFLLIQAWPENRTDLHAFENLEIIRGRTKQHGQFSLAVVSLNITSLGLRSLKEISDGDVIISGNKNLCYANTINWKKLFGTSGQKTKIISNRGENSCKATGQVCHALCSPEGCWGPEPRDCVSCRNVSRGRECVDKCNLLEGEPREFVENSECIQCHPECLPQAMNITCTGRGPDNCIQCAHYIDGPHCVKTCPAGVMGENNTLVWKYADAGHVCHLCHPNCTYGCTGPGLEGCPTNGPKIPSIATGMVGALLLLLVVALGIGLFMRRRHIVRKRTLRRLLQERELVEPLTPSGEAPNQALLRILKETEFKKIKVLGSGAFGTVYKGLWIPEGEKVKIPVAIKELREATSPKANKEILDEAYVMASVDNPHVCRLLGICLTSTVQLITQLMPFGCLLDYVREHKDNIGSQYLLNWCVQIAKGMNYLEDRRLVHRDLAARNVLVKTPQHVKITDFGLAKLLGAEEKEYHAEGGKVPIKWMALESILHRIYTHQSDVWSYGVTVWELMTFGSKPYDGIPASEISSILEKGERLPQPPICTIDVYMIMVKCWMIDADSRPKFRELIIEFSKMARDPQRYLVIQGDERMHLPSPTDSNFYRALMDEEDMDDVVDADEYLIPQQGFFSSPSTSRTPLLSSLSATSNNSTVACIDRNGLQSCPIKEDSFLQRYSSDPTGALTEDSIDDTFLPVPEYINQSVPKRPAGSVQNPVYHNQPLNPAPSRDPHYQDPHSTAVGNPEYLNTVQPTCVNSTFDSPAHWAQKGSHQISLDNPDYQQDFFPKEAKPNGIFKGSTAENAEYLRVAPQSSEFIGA

Row | Structure (SMILES) | IC50 (EGFR wild type; [3]) | IC50 (EGFR L858R; [4]) | IC50 (EGFR L858R/T790M; [5]) | IC50 (EGFR Exon19Del; [6]) | IC50 (EGFR Exon19Del/T790M; [7]) | IC50 (EGFR[T790M/C797S/L858R]; [8]) | IC50 [1, 9] | IC50 (EGFR (d746-750 C797S); [10]) | IC50 (EGFR (C797S L858R); [11]) | GI50 [2, 12] | GI50 [2, 13] | GI50 [2, 14] | GI50 [2, 15] | GI50 [2, 16] | GI50 [2, 17] | GI50 [2, 18] | GI50 (PC-9) | GI50 (A-431; [19]) | other results
1 | Cc1cc2cc(n1)-c1cnn(C)c1OCCN1CC3CCC(C3)(C1)n1c(nc3ccc(N4CCC(N5CCOCC5)C4)cc31)NC2=O (single isomer, unassigned) [Example B44B] | > 5000 nM | 170 nM | 13 nM | 18 nM | 6.4 nM | 4.9 nM | 4.3 nM | 8.1 nM | 50 nM | 2 nM | 2 nM | 12 nM | 2 nM | 2 nM | 15 nM | 2 nM | 13 nM | 929 nM | –
2 | Cc1cc2cc(n1)-c1cnn(C)c1OCCN1CC3CCC(CC3)(C1)n1c(nc3ccc(N4CCN(C)CC4)cc31)NC2=O [Example B3, 15,21-dimethyl-5-(4-methylpiperazin-1-yl)-23-oxa-2,9,11,16,20,21,26-heptaazaheptacyclo[26.2.2.1^{1,26}.1^{13,17}.0^{2,10}.0^{3,8}.0^{18,22}]tetratriaconta-3,5,7,9,13,15,17(34),18(22),19-nonaen-12-one] | – | – | – | – | – | – | – | – | – | – | – | – | – | – | – | – | – | 2020 nM | IC50 (EGFR wild type; EGFR WT, 1 h, room temperature, read-out: IC50 (nM) @WT): 954 nM; IC50 (EGFR L858R; 1 h, room temperature, read-out: IC50 (nM) @L858R): 24 nM; IC50 (EGFR L858R/T790M; EGFR L858R-T790M, 1 h, room temperature, read-out: IC50 (nM) @L858R-T790M): 7.2 nM; IC50 (EGFR Exon19Del; EGFR Del19, 1 mM ATP, 1 h, room temperature): 7 nM; IC50 (EGFR Exon19Del/T790M; EGFR Del19-T790M, 1 h, room temperature, read-out: IC50 (nM) @Del19-T790M): 4.3 nM; IC50 (EGFR[T790M/C797S/L858R]; EGFR T790M-C797S-L858R, 1 h, room temperature, read-out: IC50 (nM) @T790M- C797S - L858R): 11 nM; IC50 ([1]; EGFR T790M-C797S-Del19, 1 mM ATP, 1 h, room temperature, read-out: IC50 (nM) @T790M - C797S - Del19): 7.3 nM; IC50 (EGFR (d746-750 C797S); EGFR Del19-C797S, 1 h, room temperature, read-out: IC50 (nM) @Del19-C797S): 36 nM; IC50 (EGFR (C797S L858R); EGFR L858-C797S, 1 h, room temperature, read-out: IC50 (nM) @L858-C797S): 3.1 nM; GI50 ([2]; Mus musculus, BaF3, 72 h, BaF3 cells, EGFR DEL19 - C797S, read-out: GI50 DEL19 - C797S/BaF3): 7.5 nM; GI50 ([2]; Mus musculus, BaF3, 72 h, BaF3 cells, EGFR DEL19 - T790-C797S, read-out: GI50 DEL19 - T790-C797S/BaF3): 1.7 nM; GI50 ([2]; Mus musculus, BaF3, 72 h, BaF3 cells, EGFR L858R - C797S, read-out: GI50 L858R - C797S/BaF3): 58 nM; GI50 ([2]; Mus musculus, BaF3, 72 h, BaF3 cells, EGFR L858R - T790-C797S, read-out: GI50 L858R - T790-C797S/BaF3): 5.2 nM; GI50 ([2]; Mus musculus, BaF3, 72 h, BaF3 cells, EGFR L858R - T790M, read-out: GI50 L858R - T790M/BaF3): 11 nM; GI50 ([2]; Mus musculus, BaF3, 72 h, BaF3 cells, EGFR L858R, read-out: GI50 L858R/BaF3): 41 nM; GI50 ([2]; Mus musculus, BaF3, 72 h, EGFR DEL19 - T790M, read-out: GI50 DEL19 - T790M): 2.5 nM; GI50 (PC-9; Homo sapiens, PC-9, 72 h): 52 nM
3 | COCCN(C)c1ccc2nc3n(c2c1)C12CCC(CN(CCOc4c(cnn4C)-c4cc(cc(C)n4)C(=O)N3)C1)C2 (single isomer, unassigned) [Example B46A] | > 5000 nM | > 5000 nM | > 5000 nM | > 5000 nM | > 5000 nM | > 5000 nM | > 5000 nM | > 5000 nM | > 5000 nM | 977 nM | 492 nM | 2500 nM | 198 nM | 919 nM | 7610 nM | 497 nM | 3050 nM | – | GI50 (A-431; A-431 cells): 7830 nM
